biological target: T1, human α7 receptor (Homo sapiens, UniProt P36544); test: α7 NNR flux assay (FDSS Ca assay, positive allosteric modulation of acetylcholine response); format: cell-based; conditions: human α7 receptor stably expressed in rat GH4C1 cells; acetylcholine 20 μM; % modulation relative to PNU-120596 set to 100%
T1 construct: host or cells: rat GH4C1 cell line
Description: The nicotinic acetylcholine receptor α7 is a calcium-permeable ion channel, whose activity can be measured by over expression in mammalian cells or oocytes. In this version of the assay, the human α7 receptor is stably expressed in the rat GH4C1 cell line. The assay was used to identify positive allosteric modulators (PAMs) of the α7 receptor. Activation of the channel was measured by loading cells with the calcium-sensitive fluorescent dye. Calcium-4 (Assay kit from Molecular Devices), and then measuring real-time changes, in fluorescence upon treatment with test compounds.
The cell line ChanClone GH4C1-nAChRalpha7 from Genionics was seeded from frozen stock in 384-well plates in culture media 2-3 days before experiment to form an approximately 80% confluent layer on the day of experiment.
The cell culture were split into “22.5 cm×22.5 cm”-plates with approximately 100×10^3 cells/cm^2. After four days incubation in a humidified incubator at 37° C. and 5% CO2, it had grown to an 80-90% confluent layer, and the cells were harvested.
Two or three days before the experiment the cells were seeded in 384 well plates from Greiner bio-one (781946, CELLCOAT, Poly-D-Lysine, black, μClear).
The cells were seeded in 384 well plates with 30 μL/well (30000 cells/well) while stirring the cell suspension or otherwise preventing the cells from precipitating.
The loading buffer was 5% v/v Calcium-4 Kit and 2.5 mM Probenecid in assay buffer.
Culture media was removed from the cell plates and 20 μL loading buffer was added in each well. The cell plates were placed in trays and incubated 90 minutes in the incubator (37° C.). Thereafter the plates were incubated 30 minutes at room temperature, still protected from light.
The assay buffer was HBSS with 20 mM HEPES, pH 7.4 and 3 mM CaCl2.
[…] 10 mM compound solution in DMSO was diluted in 50 μL assay buffer. The final test concentrations in the cell plates were 20-10-5-2.5-1.25-0.625-0.312-0.156-0.078-0.039 μM. Assay buffer and 3 μM PNU-120596 were used for control. The agonist acetylcholine was added to a final concentration of 20 μM (˜EC100). In the FDSS7000 the Ex480-Em540 was measured with 1 second intervals. The baseline was made of 5 frames before addition of test compounds, and 95 frames more were made before addition of acetylcholine. The measurement stopped 30 frames after the 2nd addition. Raw data for each well were collected as “the maximum fluorescence count” in the interval 100-131 seconds and as “the average fluorescence count” in the interval 96-100 seconds. The positive allosteric modulation in the 2nd addition was the enhancement of agonist response with test compound compared to agonist alone.
Results were calculated as % modulation of test compound compared to the reference PNU-120596 set to 100%.

T1 sequence (P36544 23-502): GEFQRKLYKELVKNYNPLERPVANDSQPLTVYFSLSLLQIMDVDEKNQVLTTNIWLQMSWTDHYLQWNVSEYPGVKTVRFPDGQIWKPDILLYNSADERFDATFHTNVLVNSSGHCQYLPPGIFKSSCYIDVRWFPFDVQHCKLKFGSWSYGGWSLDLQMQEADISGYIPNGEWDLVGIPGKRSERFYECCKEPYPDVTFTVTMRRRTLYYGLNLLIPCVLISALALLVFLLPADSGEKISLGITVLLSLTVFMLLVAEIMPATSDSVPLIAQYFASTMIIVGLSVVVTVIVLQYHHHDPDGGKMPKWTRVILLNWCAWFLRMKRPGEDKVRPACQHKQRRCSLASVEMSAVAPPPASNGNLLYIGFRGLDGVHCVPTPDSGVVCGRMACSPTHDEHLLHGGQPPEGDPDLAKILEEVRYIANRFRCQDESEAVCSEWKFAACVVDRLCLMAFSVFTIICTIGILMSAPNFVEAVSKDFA

Row | EC50 [µM] | Structure (SMILES)
1 | 3.6 | Cc1cc(C(=O)Nc2c(C)ccnc2C)c2c(C)nn(-c3ccccc3)c2n1 [Compound 2, 3,6-Dimethyl-1-phenyl-1H-pyrazolo[3,4-b]pyridine-4-carboxylic acid (2,4-dimethyl-pyridin-3-yl)-amide]
2 | 4.1 | Cc1cc(C(=O)Nc2c(C)cncc2C)c2c(C)nn(-c3ccccc3)c2n1 [Compound 3, 3,6-Dimethyl-1-phenyl-1H-pyrazolo[3,4-b]pyridine-4-carboxylic acid (3,5-dimethyl-pyridin-4-yl)-amide]
3 | 7.1 | COc1ccccc1-n1nc(C)c2c(C(=O)Nc3c(C)ccnc3C)cc(C)nc21 [Compound 4, 1-(2-Methoxy-phenyl)-3,6-dimethyl-1H-pyrazolo[3,4-b]pyridine-4-carboxylic acid (2,4-dimethyl-pyridin-3-yl)-amide]
4 | 3.3 | COc1ccc(-n2nc(C)c3c(C(=O)Nc4cccnc4C)cc(C)nc32)cc1 [Compound 5, 1-(4-Methoxy-phenyl)-3,6-dimethyl-1H-pyrazolo[3,4-b]pyridine-4-carboxylic acid (2-methyl-pyridin-3-yl)-amide]
5 | 2.5 | Cc1ccc(-n2nc(C)c3c(C(=O)Nc4c(C)ccnc4C)cc(C)nc32)cc1 [Compound 6, 3,6-Dimethyl-1-p-tolyl-1H-pyrazolo[3,4-b]pyridine-4-carboxylic acid (2,4-dimethyl-pyridin-3-yl)-amide]
6 | 2.2 | COc1ccc(-n2nc(C)c3c(C(=O)Nc4c(C)ccnc4OC)cc(C)nc32)cc1 [Compound 7, 1-(4-Methoxy-phenyl)-3,6-dimethyl-1H-pyrazolo[3,4-b]pyridine-4-carboxylic acid (2-methoxy-4-methyl-pyridin-3-yl)-amide]
7 | 5.1 | COc1ccc(-n2nc(C)c3c(C(=O)Nc4cnccc4C)cc(C)nc32)cc1 [Compound 8, 1-(4-Methoxy-phenyl)-3,6-dimethyl-1H-pyrazolo[3,4-b]pyridine-4-carboxylic acid (4-methyl-pyridin-3-yl)-amide]
8 | 4 | COc1cccc(-n2nc(C)c3c(C(=O)Nc4c(C)ccnc4C)cc(C)nc32)c1 [Compound 9, 1-(3-Methoxy-phenyl)-3,6-dimethyl-1H-pyrazolo[3,4-b]pyridine-4-carboxylic acid (2,4-dimethyl-pyridin-3-yl)-amide]
9 | 7.2 | Cc1ccc(-n2nc(C)c3c(C(=O)Nc4c(C)ccnc4C)cc(C)nc32)cn1 [Compound 10, 3,6-Dimethyl-1-(6-methyl-pyridin-3-yl)-1H-pyrazolo[3,4-b]pyridine-4-carboxylic acid (2,4-dimethyl-pyridin-3-yl)-amide]
10 | 2.8 | COc1ccc(-n2ncc3c(C(=O)Nc4c(C)ccnc4C)cc(C)nc32)cc1 [Compound 11, 1-(4-Methoxy-phenyl)-6-methyl-1H-pyrazolo[3,4-b]pyridine-4-carboxylic acid (2,4-dimethyl-pyridin-3-yl)-amide]
11 | 4.9 | COc1ccc(-n2nc(C)c3c(C(=O)Nc4c(C)ncnc4C)cc(C)nc32)cc1 [Compound 12, 1-(4-Methoxy-phenyl)-3,6-dimethyl-1H-pyrazolo[3,4-b]pyridine-4-carboxylic acid (4,6-dimethyl-pyrimidin-5-yl)-amide]
12 | 7.8 | Cc1cc(C(=O)Nc2c(C)ccnc2C)c2c(C)nn(-c3ccc(F)cc3)c2n1 [Compound 13, 1-(4-Fluoro-phenyl)-3,6-dimethyl-1H-pyrazolo[3,4-b]pyridine-4-carboxylic acid (2,4-dimethyl-pyridin-3-yl)-amide]
13 | 6.3 | Cc1cc(C(=O)Nc2c(C)ccnc2C)c2c(C)nn(-c3ccc(C#N)cc3)c2n1 [Compound 14, 1-(4-Cyano-phenyl)-3,6-dimethyl-1H-pyrazolo[3,4-b]pyridine-4-carboxylic acid (2,4-dimethyl-pyridin-3-yl)-amide]
14 | 6 | COc1ccc(-n2nc(C)c3c(C(=O)Nc4c(C)ccnc4C)ccnc32)cc1 [Compound 15, 1-(4-Methoxy-phenyl)-3-methyl-1H-pyrazolo[3,4-b]pyridine-4-carboxylic acid (2,4-dimethyl-pyridin-3-yl)-amide]
15 | 5.5 | COc1ccc(-n2nc(C)c3c(C(=O)Nc4c(C)ccnc4C)cc(C)nc32)cn1 [Compound 16, 1-(6-Methoxy-pyridin-3-yl)-3,6-dimethyl-1H-pyrazolo[3,4-b]pyridine-4-carboxylic acid (2,4-dimethyl-pyridin-3-yl)-amide]
16 | 11 | Cc1cc(C(=O)Nc2c(C)ccnc2C)c2c(C)nn(-c3ccc(OC(F)(F)F)cc3)c2n1 [Compound 17, 3,6-Dimethyl-1-(4-trifluoromethoxy-phenyl)-1H-pyrazolo[3,4-b]pyridine-4-carboxylic acid (2,4-dimethyl-pyridin-3-yl)-amide]
17 | 6.5 | COc1ccc(-n2nc(C)c3c(C(=O)Nc4c(C)cc(C)nc4C)cc(C)nc32)cc1 [Compound 18, 1-(4-Methoxy-phenyl)-3,6-dimethyl-1H-pyrazolo[3,4-b]pyridine-4-carboxylic acid (2,4,6-trimethyl-pyridin-3-yl)-amide]
18 | 3.3 | Cc1cc(C(=O)Nc2c(C)ccnc2C)c2c(C)nn(-c3ccc(OC(F)F)cc3)c2n1 [Compound 19, 1-(4-Difluoromethoxy-phenyl)-3,6-dimethyl-1H-pyrazolo[3,4-b]pyridine-4-carboxylic acid (2,4-dimethyl-pyridin-3-yl)-amide]
19 | 4.6 | COc1ccc(-n2nc(C)c3c(C(=O)Nc4cncnc4C)cc(C)nc32)cc1 [Compound 20, 1-(4-Methoxy-phenyl)-3,6-dimethyl-1H-pyrazolo[3,4-b]pyridine-4-carboxylic acid (4-methyl-pyrimidin-5-yl)-amide]
20 | 3.6 | Cc1cc(C(=O)Nc2c(C)ccnc2C)c2c(C)nn(-c3ccc(N(C)C)cc3)c2n1 [Compound 23, 1-(4-Dimethylamino-phenyl)-3,6-dimethyl-1H-pyrazolo[3,4-b]pyridine-4-carboxylic acid (2,4-dimethyl-pyridin-3-yl)-amide]
21 | 7.2 | Cc1cc(C(=O)Nc2c(C)ccnc2C)c2c(C)nn(-c3ccsc3)c2n1 [Compound 25, 3,6-Dimethyl-1-thiophen-3-yl-1H-pyrazolo[3,4-b]pyridine-4-carboxylic acid (2,4-dimethyl-pyridin-3-yl)-amide]
22 | 11 | Cc1cc(C(=O)Nc2c(C)ccnc2C)c2c(C)nn(-c3cncnc3)c2n1 [Compound 26, 3,6-Dimethyl-1-pyrimidin-5-yl-1H-pyrazolo[3,4-b]pyridine-4-carboxylic acid (2,4-dimethyl-pyridin-3-yl)-amide]
23 | 6.5 | COc1ccnc(C)c1NC(=O)c1cc(C)nc2c1c(C)nn2-c1ccccc1 [Compound 28, 3,6-Dimethyl-1-phenyl-1H-pyrazolo[3,4-b]pyridine-4-carboxylic acid (4-methoxy-2-methyl-pyridin-3-yl)-amide]
24 | 2.7 | COc1ccc(-n2nc(C)c3c(C(=O)Nc4cnccc4N(C)C)cc(C)nc32)cc1 [Compound 30, 1-(4-Methoxy-phenyl)-3,6-dimethyl-1H-pyrazolo[3,4-b]pyridine-4-carboxylic acid (4-dimethylamino-pyridin-3-yl)-amide]
25 | 8.9 | COc1ccc(-n2nc(C)c3c(C(=O)Nc4cnc(C)cc4C)cc(C)nc32)cc1 [Compound 33, 1-(4-Methoxy-phenyl)-3,6-dimethyl-1H-pyrazolo[3,4-b]pyridine-4-carboxylic acid (4,6-dimethyl-pyridin-3-yl)-amide]
26 | 9.5 | Cc1cc(C(=O)Nc2c(C)ccnc2C)c2c(C)nn(-c3ccc(O)cc3)c2n1 [Compound 37, 1-(4-Hydroxy-phenyl)-3,6-dimethyl-1H-pyrazolo[3,4-b]pyridine-4-carboxylic acid (2,4-dimethyl-pyridin-3-yl)-amide]

Reference: US20130005743A1, “New positive allosteric modulators of nicotinic acetylcholine receptor” (H. Lundbeck A/S, priority 2011, published 2013)
